Literature values in patent US8999893B2, “Stabilized oil-in-water emulsions including meptyl dinocap” (Dow AgroSciences LLC, priority 2008, dated 2015).

## 2,6-dinitro-4-octylphenyl crotonates and 2,4-dinitro-6-octylphenyl crotonates in which ‘octyl’ is a mixture of 1-methylheptyl, 1-ethylhexyl and 1-propylpentyl groups [Meptyl Dinocap]
  solubility in water: 0.151 µg/mL
